Results published in the supplement of paper PMC3974653.
Structures can show the parent of a compound that is named as a salt.

These compounds were tested on MTT (mouse pheochromocytoma) (assay: IC50 of cell viability (ATP content)). Settings: (24 or 48 h).
How it was run: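 The IC50 was fitted with a four-parameter logistic equation to normalised CellTiter-Glo ATP luminescence from MTT mouse pheochromocytoma cells. These cells, in white 1536-well plates, had been treated for 24 or 48 hrs with library compounds at 8 final concentrations between 0.5 nM and 46 µM, and luminescence was read after 15 minutes. Positive-control wells served as 100% and DMSO wells as 0%.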

SMILES | IC50 of cell viability
CCCCCC[C@@H](CCC)C(=O)O [(R)-2-Propyloctanoic acid (Arundic Acid)] | > 46 µM
O=C([O-])c1cc2cc(Cc3cccnc3)ccc2o1.[Na+] [FUREGRELATE SODIUM] | > 46 µM
CCOC(=O)c1ncn2c1CN(C)C(=O)c1c(I)cccc1-2 [IOMAZENIL] | > 46 µM
CCN(CC)CCc1nc(-c2ccccc2)no1.O=C(O)CC(O)(CC(=O)O)C(=O)O [Oxalamine citrate salt] | > 46 µM
CCCCCCCCCCCCCCCCCC(=O)OC[C@@H](O)[C@H]1OC[C@H](O)[C@H]1O [Sorbitan monostearate] | > 46 µM
CCOC(=O)[C@@H](N)CS [L-CYSTEINE ETHYLESTER HYDROCHLORIDE] | > 46 µM
Cc1ccc(/N=C/N(C)/C=N/c2ccc(C)cc2C)c(C)c1 [AMITRAZ] | > 46 µM
C[S+](=O)([O-])OCC(O)C(O)CO[S+](C)(=O)[O-] (centres undefined) [TREOSULFAN] | > 46 µM
O=C1c2ccccc2C(=O)c2c1ccc(O)c2O [ALIZARIN] | > 46 µM
CO[C@H]1[C@@H](O[C@@H]2O[C@@H](C)[C@@H](O[C@H]3C[C@](C)(O)[C@H](O)[C@H](C)O3)[C@@H](N(C)C)[C@H]2O)[C@H](CC=O)C[C@@H](C)[C@@H](O[C@H]2CC[C@H](N(C)C)[C@H](C)O2)/C=C\C=C/C[C@@H](C)OC(=O)C[C@H]1O [Spiramycin] | > 46 µM
CN(C)CCC=C1c2ccccc2CCc2ccccc21 [Amitriptyline] | > 46 µM
O=C(O)Cn1c(C(=O)Nc2nc(-c3ccccc3Cl)cs2)cc2ccccc21 [LINTITRIPTUM] | > 46 µM
CCCCC(=O)OC1CCC2C3CCc4cc(O)ccc4C3CC[C@]12C (some centres undefined) [ESTRADIOL VALERATE] | > 46 µM
NCC1O[C@@H](OC2C(N)C[C@H](N)[C@@H](O[C@H]3OC(CO)C(O)C(N)C3O)C2O)C(N)C(O)C1O (some centres undefined) [KANAMYCIN B] | > 46 µM
OCCN1CCN(CCCN2c3ccccc3Sc3ccc(Cl)cc32)CC1 [Perphenazine] | > 46 µM
CN1C2CCC1CC(OC(c1ccccc1)c1ccccc1)C2.O=[S+]([O-])(O)O (centres undefined) [BENZTROPINE] | > 46 µM
O=[S+]([O-])(O)C(F)(F)C(F)(F)C(F)(F)C(F)(F)C(F)(F)C(F)(F)C(F)(F)C(F)(F)F [Perfluorooctane sulfonic acid] | > 46 µM
Nc1ccc([S+](=O)([O-])Nc2ncccn2)cc1.[Ag] [sulfadiazine] | > 46 µM

SMILES | IC50 of cell viability
C[N+]1([O-])[C@@H]2CC(OC(=O)[C@@H](CO)c3ccccc3)C[C@H]1[C@H]1O[C@H]12 (some centres undefined) [Scopolamin-N-oxide hydrobromide] | > 46 µM
Cn1c(=O)c2c(ncn2C[C@@H](O)CO)n(C)c1=O [Diprophylline] | > 46 µM
CNC(C)Cc1ccccc1 (centres undefined) [(?)-Methamphetamine] | > 46 µM
COC(=O)[C@@H](N)CS [Mecisteina] | > 46 µM
CC1[C@H]2Cc3ccc(O)cc3[C@]1(C)CCN2CCc1ccccc1 (single isomer, unassigned; (-)) [(-)-Phenazocine] | > 46 µM
CCCCCCCCCCC(CO)CCCCCCCC (centres undefined) [OCTYLDODECANOL] | > 46 µM
NNC(=O)c1ccncc1 [Isoniazid] | > 46 µM
Nc1nc(O)c(-c2ccccc2)o1 [PEMOLINE] | > 46 µM
CCCc1nn(C)c2c(O)nc(-c3cc([S+](=O)([O-])N4CCN(C)CC4)ccc3OCC)nc12 [Sildenafil citrate] | > 46 µM
O=C(O)CCCO | > 46 µM
C/C(=C(\CCO)SSCC1CCCO1)N(C=O)Cc1cnc(C)nc1N (centres undefined) [Fursultiamine] | > 46 µM
O=C([O-])c1cc(Oc2ccc(C(F)(F)F)cc2Cl)ccc1[N+](=O)[O-] [Acifluorfen sodium] | > 46 µM
CCN(CC)C(=O)/C(C#N)=C/c1cc(O)c(O)c([N+](=O)[O-])c1 [Entacapone] | > 46 µM
Oc1cccc2cccnc12 [8-Hydroxyquinoline] | > 46 µM
N=C1NCCC(C2NC(=O)/C(=C/NC(N)=O)NC(=O)C(CNC(=O)CC(N)CCCN)NC(=O)C(CO)NC(=O)C(N)CNC2=O)N1 (centres undefined) [CAPREOMYCIN SULFATE] | > 46 µM
NCCCCC(N)C(=O)O (centres undefined) [Lysine] | > 46 µM
CC[C@]12CC(=C)[C@H]3[C@@H](CCC/4=C/C(=O)CC[C@H]34)[C@@H]1CC[C@@]2(O)C#C [ETONOGESTREL] | > 46 µM

Second part, the compound after the results:

IC50 of cell viability | SMILES
> 46 µM | COc1cccc(OC)c1C(=O)NC1C(=O)N2C1SC(C)(C)C2C(=O)[O-].[Na+] (centres undefined) [METHICILLIN SODIUM]
> 46 µM | CC(=O)O[C@@H]1C(=O)O[C@H]2[C@@H]1OC(=O)[C@@H]2OC(C)=O [ACEGLATONE]
> 46 µM | Nc1nc(O)c2nc(CNc3ccc(C(=O)N[C@@H](CCC(=O)O)C(=O)O)cc3)cnc2n1 [Folic acid]
> 46 µM | CC(C)COC(=O)c1ccc(N)cc1 [Isobutamben]
> 46 µM | C[S+](=O)([O-])Nc1ccc([N+](=O)[O-])cc1Oc1ccccc1 [Nimesulide]
> 46 µM | CC(=O)Oc1cccc(C(=O)O)c1OC(C)=O [DIPYROCETYL]
> 46 µM | Cc1cc(O)c(C(=O)N[C@@H](C(=O)N[C@@H]2C(=O)N3C(C(=O)O)=C(CSc4nnnn4C)CS[C@H]23)c2ccc(O)cc2)cn1 [CEFPIRAMIDE SODIUM]
> 46 µM | CCCCCCCCOc1ccc(C(=O)c2ccccc2)c(O)c1 [OCTABENZONUM]
> 46 µM | CC(CC(=O)O)(CC(=O)O)C(=O)O.CCN(CC)CCOCCOC(=O)C(CC)(CC)c1ccccc1 [OXELADIN TANNATE]
> 46 µM | CC(C(=O)O)c1ccc2c(c1)Cc1cccnc1O2 (centres undefined) [PRANOPROFEN]
> 46 µM | Nc1c(CC(=O)[O-])cccc1C(=O)c1ccccc1 [Amfenac Sodium]
> 46 µM | CN1C(=O)/C(=N\NC(N)=S)c2ccccc21 [METISAZONUM]
> 46 µM | CC(=O)Nc1c(I)c(NC(C)=O)c(I)c(C(=O)O)c1I [Diatrizoic acid dihydrate]
> 46 µM | Cc1ccc(C(=O)c2ccc(CC(=O)[O-])n2C)cc1.O.O.[Na+] [Tolmetin sodium salt dihydrate]
> 46 µM | C[S+](=O)([O-])c1ccc([C@@H](O)[C@@H](COC(=O)CN)NC(=O)C(Cl)Cl)cc1 [THIAMPHENICOL AMINOACETATE HYDROCHLORIDE]
> 46 µM | O=C(Oc1ccccc1)c1ccccc1O [Phenyl salicylate]
> 46 µM | Oc1ccc(/C=C\c2cc(O)cc(O)c2)cc1 [Resveratrol]
> 46 µM | CC(=O)c1ccc2c(c1)N(CCCN(C)C)c1ccccc1S2 [Acetopromazine maleate salt]
> 46 µM | NC(=O)Cc1cccc(C(=O)c2ccccc2)c1N [Nepafenac]
